Measured values: the NIST ThermoML archive (doi:10.1021/je5000132)
± gives the expanded uncertainty stated by the source.

Assay: xn = mol fraction of the nth substance listed
Details: for speed of sound: 100 kPa, Pulse-echo method; for speed of sound / viscosity / mass density: Liquid; for viscosity / mass density: 101 kPa; for viscosity: Concentric cylinders viscometry; for mass density: Vibrating tube method; for surface tension liquid-gas: 294.7 K, Drop volume

CC(CC(C)(C)C)CC(C)(C)C [2,2,4,6,6-pentamethylheptane] + CCCCCCCCCCCC
Details | mass density [kg/m3] | speed of sound [m/s] | viscosity [mPa·s]
293.15 K, x1 = 0.1 | 748.467 ± 0.56 | 1288.5 ± 1.4 | 1.45 ± 0.019
293.15 K, x1 = 0.2 | 748.123 ± 0.57 | 1279.3 ± 1.5 | 1.42 ± 0.02
293.15 K, x1 = 0.2885 | 747.857 ± 0.58 | 1271.4 ± 1.5 | 1.4 ± 0.02
293.15 K, x1 = 0.3998 | 747.387 ± 0.59 | 1261.4 ± 1.6 | 1.37 ± 0.02
293.15 K, x1 = 0.4999 | 747.034 ± 0.61 | 1251.6 ± 1.7 | 1.35 ± 0.02
293.15 K, x1 = 0.6501 | 746.519 ± 0.64 | 1238 ± 1.9 | 1.33 ± 0.021
293.15 K, x1 = 0.7998 | 745.947 ± 0.67 | 1223.2 ± 2 | 1.31 ± 0.021
293.15 K, x1 = 1 | – | 1203.6 ± 2.2 | –
303.15 K, x1 = 0.1 | 741.234 ± 0.56 | 1250.3 ± 1.4 | 1.22 ± 0.019
303.15 K, x1 = 0.2 | 740.898 ± 0.57 | 1241.1 ± 1.5 | 1.2 ± 0.019
303.15 K, x1 = 0.2885 | 740.654 ± 0.58 | 1233.2 ± 1.5 | 1.18 ± 0.019
303.15 K, x1 = 0.3998 | 740.15 ± 0.59 | 1223.2 ± 1.6 | 1.16 ± 0.019
303.15 K, x1 = 0.4999 | 739.835 ± 0.61 | 1213.4 ± 1.7 | 1.15 ± 0.019
303.15 K, x1 = 0.6501 | 739.313 ± 0.64 | 1199.6 ± 1.8 | 1.13 ± 0.02
303.15 K, x1 = 0.7998 | 738.715 ± 0.67 | 1184.7 ± 2 | 1.12 ± 0.02
303.15 K, x1 = 1 | – | 1164.8 ± 2.2 | –
313.15 K, x1 = 0.1 | 733.97 ± 0.56 | 1212.5 ± 1.4 | 1.03 ± 0.018
313.15 K, x1 = 0.2 | 733.64 ± 0.56 | 1203.3 ± 1.5 | 1.02 ± 0.018
313.15 K, x1 = 0.2885 | 733.415 ± 0.58 | 1195.5 ± 1.5 | 1 ± 0.018
313.15 K, x1 = 0.3998 | 732.953 ± 0.59 | 1185.4 ± 1.6 | 0.988 ± 0.019
313.15 K, x1 = 0.4999 | 732.598 ± 0.61 | 1175.7 ± 1.7 | 0.977 ± 0.019
313.15 K, x1 = 0.6501 | 732.066 ± 0.64 | 1161.8 ± 1.8 | 0.962 ± 0.019
313.15 K, x1 = 0.7998 | 731.445 ± 0.67 | 1146.8 ± 2 | 0.952 ± 0.019
313.15 K, x1 = 1 | – | 1126.7 ± 2.2 | –
323.15 K, x1 = 0.1 | 726.674 ± 0.56 | 1175.3 ± 1.4 | 0.898 ± 0.018
323.15 K, x1 = 0.2 | 726.352 ± 0.56 | 1166.2 ± 1.5 | 0.885 ± 0.018
323.15 K, x1 = 0.2885 | 726.139 ± 0.58 | 1158.3 ± 1.5 | 0.876 ± 0.018
323.15 K, x1 = 0.3998 | 725.68 ± 0.59 | 1148.3 ± 1.6 | 0.863 ± 0.018
323.15 K, x1 = 0.4999 | 725.324 ± 0.61 | 1138.5 ± 1.7 | 0.856 ± 0.018
323.15 K, x1 = 0.6501 | 724.781 ± 0.63 | 1124.6 ± 1.8 | 0.844 ± 0.018
323.15 K, x1 = 0.7998 | 724.136 ± 0.67 | 1109.5 ± 2 | 0.836 ± 0.019
323.15 K, x1 = 1 | – | 1089.3 ± 2.2 | –
333.15 K, x1 = 0.1 | 719.342 ± 0.56 | 1138.7 ± 1.4 | 0.784 ± 0.018
333.15 K, x1 = 0.2 | 719.024 ± 0.56 | 1129.6 ± 1.4 | 0.774 ± 0.018
333.15 K, x1 = 0.2885 | 718.82 ± 0.57 | 1121.7 ± 1.5 | 0.766 ± 0.018
333.15 K, x1 = 0.3998 | 718.363 ± 0.59 | 1111.7 ± 1.6 | 0.757 ± 0.018
333.15 K, x1 = 0.4999 | 718.004 ± 0.6 | 1101.9 ± 1.7 | 0.75 ± 0.018
333.15 K, x1 = 0.6501 | 717.449 ± 0.63 | 1087.9 ± 1.8 | 0.741 ± 0.018
333.15 K, x1 = 0.7998 | 716.783 ± 0.66 | 1072.8 ± 2 | 0.734 ± 0.018
333.15 K, x1 = 1 | – | 1052.5 ± 2.2 | –
343.15 K, x1 = 0.1 | 711.9 ± 0.56 | – | 0.691 ± 0.017
343.15 K, x1 = 0.2 | 711.7 ± 0.56 | – | 0.683 ± 0.017
343.15 K, x1 = 0.2885 | 711.5 ± 0.57 | – | 0.677 ± 0.017
343.15 K, x1 = 0.3998 | 710.9 ± 0.59 | – | 0.668 ± 0.018
343.15 K, x1 = 0.4999 | 710.6 ± 0.6 | – | 0.664 ± 0.018
343.15 K, x1 = 0.6501 | 710 ± 0.63 | – | 0.656 ± 0.018
343.15 K, x1 = 0.7998 | 709.4 ± 0.66 | – | 0.651 ± 0.018
353.15 K, x1 = 0.1 | 704.4 ± 0.56 | – | 0.614 ± 0.017
353.15 K, x1 = 0.2 | 704.1 ± 0.56 | – | 0.607 ± 0.017
353.15 K, x1 = 0.2885 | 703.8 ± 0.57 | – | 0.603 ± 0.017
353.15 K, x1 = 0.3998 | 703.5 ± 0.59 | – | 0.595 ± 0.017
353.15 K, x1 = 0.4999 | 703 ± 0.6 | – | 0.591 ± 0.017
353.15 K, x1 = 0.6501 | 702.5 ± 0.63 | – | 0.584 ± 0.018
353.15 K, x1 = 0.7998 | 701.8 ± 0.66 | – | 0.58 ± 0.018
363.15 K, x1 = 0.1 | 696.8 ± 0.56 | – | 0.551 ± 0.017
363.15 K, x1 = 0.2 | 696.5 ± 0.56 | – | 0.545 ± 0.017
363.15 K, x1 = 0.2885 | 696.3 ± 0.57 | – | 0.526 ± 0.017
363.15 K, x1 = 0.3998 | 695.8 ± 0.59 | – | 0.534 ± 0.017
363.15 K, x1 = 0.4999 | 695.4 ± 0.6 | – | 0.531 ± 0.017
363.15 K, x1 = 0.6501 | 694.8 ± 0.63 | – | 0.525 ± 0.017
363.15 K, x1 = 0.7998 | 694.1 ± 0.66 | – | 0.521 ± 0.017
373.15 K, x1 = 0.1 | 689 ± 0.56 | – | 0.498 ± 0.017
373.15 K, x1 = 0.2 | 688.8 ± 0.56 | – | 0.493 ± 0.017
373.15 K, x1 = 0.2885 | 688.6 ± 0.57 | – | 0.49 ± 0.017
373.15 K, x1 = 0.3998 | 688.1 ± 0.59 | – | 0.483 ± 0.017
373.15 K, x1 = 0.4999 | 687.7 ± 0.6 | – | 0.481 ± 0.017
373.15 K, x1 = 0.6501 | 687.1 ± 0.63 | – | 0.476 ± 0.017
373.15 K, x1 = 0.7998 | 686.3 ± 0.65 | – | 0.472 ± 0.017

Details | surface tension liquid-gas [mN/m]
x1 = 0.1 | 24.3 ± 0.3
x1 = 0.2 | 24.1 ± 0.3
x1 = 0.2885 | 23.7 ± 0.3
x1 = 0.3998 | 23.3 ± 0.3
x1 = 0.4999 | 23.2 ± 0.3
x1 = 0.6501 | 22.7 ± 0.3
x1 = 0.7998 | 22.3 ± 0.3
x1 = 1 | 21.8 ± 0.3
